According to patent publication US20210330611A1, “THERAPY FOR NEUROLOGICAL DISEASES/DISORDERS” (priority 2020, published 2021):
Where two headings read alike, the source gives them in different places.

Experiments:
[1] = system: fibrin-induced microglia activation; assay: Image-based assay of fibrin-induced microglia activation (HTS and dose response); type: cell-based, rat; settings: primary microglia HTS, fibrin stimulation, cell size >800 μm2 as marker of activation; for inhibition at 10 µM: Rattus norvegicus, Microglia, read-out: Fibrin % inhibition
[2] = system: LPS-induced microglia activation; assay: Image-based assay of LPS-induced microglia activation (HTS and dose response); type: cell-based, rat; settings: for inhibition at 10 µM: Rattus norvegicus, Microglia, 48 h, read-out: LPS % inhibition
[3] = system: fibrin- and LPS-induced microglia activation; assay: cells; type: cell-based, rat; settings: classification by fibrin and LPS inhibition in HTS
primary rat microglia [4] = system: primary rat microglia
primary rat microglia [5] = assay: Cell toxicity (dead cells, size <150 μm2) in coated fibrin (cFib) assay; settings: primary microglia HTS, fibrin stimulation, cell size <150 μm2 as marker of toxicity;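 also: share of dead cells sized under 150 µm2 at 10 µM in fibrin-stimulated microglia HTS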

| SMILES | inhibition at 10 µM [1] | inhibition at 10 µM [2] | Quadrant (FIG. 5b) [3] | LPS % cell toxicity (primary rat microglia [4]; rat) | Fibrin % cell toxicity (primary rat microglia [5]) | Fibrin % inhibition [1] | LPS % inhibition [2] | LPS % cell toxicity (primary rat microglia [4]) |
| --- | --- | --- | --- | --- | --- | --- | --- | --- |
| CCN1CCC[C@H]1CNC(=O)c1c(OC)ccc(Br)c1OC [Remoxipride] | -14% | 3% | Q4 | 0% | 1% | – | – | – |
| CCOc1cc(CC(=O)N[C@@H](CC(C)C)c2ccccc2N2CCCCC2)ccc1C(=O)O [Repaglinide] | -14% | 18% | Q4 | 0% | 1% | – | – | – |
| CC(=O)Oc1cccc(O)c1 [Resorcinol Monoacetate] | 12% | 26% | Q4 | 1% | 1% | – | – | – |
| CC(=O)OC/C=C(C)/C=C/C=C(C)/C=C/C1=C(C)CCCC1(C)C [Retinyl Acetate] | 3% | 15% | Q4 | 0% | 1% | – | – | – |
| NC[C@H]1O[C@H](O[C@H]2[C@H](O[C@@H]3O[C@H](CO)[C@@H](O)[C@H]3O)[C@@H](O)[C@H](N)C[C@@H]2N)[C@H](N)[C@@H](O)[C@@H]1O.O=S(=O)(O)O [Ribostamycin Sulfate] | – | – | Q4 | – | 0% | −16% | 13% | 0% |
| CO[C@H]1/C=C/O[C@@]2(C)Oc3c(C)c(O)c4c(O)c(c(/C=N/N5CCN(C6CCCC6)CC5)c(O)c4c3C2=O)NC(=O)/C(C)=C\C=C\[C@H](C)[C@H](O)[C@@H](C)[C@@H](O)[C@@H](C)[C@H](OC(C)=O)[C@@H]1C [Rifapentine] | -23% | -7% | Q4 | 0% | 1% | – | – | – |
| CO[C@H]1/C=C/O[C@@]2(C)Oc3c(C)c(O)c4c(O)c(c5c(nc6cc(C)ccn65)c4c3C2=O)NC(=O)/C(C)=C\C=C\[C@H](C)[C@H](O)[C@@H](C)[C@@H](O)[C@@H](C)[C@H](OC(C)=O)[C@@H]1C [Rifaximin] | 6% | 22% | Q4 | 2% | 0% | – | – | – |
| O=P(O)(O)C(O)(Cc1cccnc1)P(=O)(O)O [Risedronate] | 47% | 15% | Q4 | 0% | 1% | – | – | – |
| CN(C)CCc1c[nH]c2ccc(Cn3cncn3)cc12 [Rizatriptan] | -9% | 10% | Q4 | 0% | 1% | – | – | – |
| C=CC[N+]1([C@H]2C[C@H]3[C@@H]4CC[C@H]5C[C@H](O)[C@@H](N6CCOCC6)C[C@]5(C)[C@H]4CC[C@]3(C)[C@H]2OC(C)=O)CCCC1 [Rocuronium] | -22% | 5% | Q4 | 0% | 1% | – | – | – |
| CS(=O)(=O)c1ccc(C2=C(c3ccccc3)C(=O)OC2)cc1 [Rofecoxib] | 15% | 14% | Q4 | 0% | 0% | – | – | – |
